EPSA data for eleven molecules are collected here from US20260022143A1, “Cyclic Peptide Inhibitors of IL-23” (JANSSEN PHARMACEUTICA NV, priority 2022, published 2026).

Counter-ions that a name gives are not always drawn. Starred links: 1 amine or outer side, 2 acyl side, 3 side chain; linkers in the order of their positions; H or OH if unused. Positions of bridges follow the written chain, without caps; N, C: chain ends. Non-standard residues stand in square brackets, D forms with d. Residues, ends and D or L forms follow the SMILES beside them. Groups on a side chain read outwards from the residue. *: point of attachment. X13 = C[N+]1(Cc2cn(-c3ccc(C[C@H](N[*:1])C(=O)[*:2])cc3)nn2)CCOCC1; X51 = C[N+](C)(C)CCCc1cn(-c2ccc(C[C@H](N[*:1])C(=O)[*:2])cc2)nn1; Me3N+(CH2)2O(CH2)2O(CH2)2CO = C[N+](C)(C)CCOCCOCCC(=O)*; CH2CH2OCH2CH2OCH2CH2NMe3+ = C[N+](C)(C)CCOCCOCC*; Trp(7-Me) = Cc1cccc2c(C[C@H](N)C(=O)O)c[nH]c12; d(hLys(Me3)) = C[N+](C)(C)CCCCC[C@@H](N)C(=O)O; X23 = Cn1nnc(CC[C@H](N[*:1])C(=O)[*:2])n1; γGlu = O=C(O)[C@H](CCC(=O)[*:2])N[*:1]; 2Nal = N[C@@H](Cc1ccc2ccccc2c1)C(=O)O; AEF = NCCOc1ccc(C[C@H](N)C(=O)O)cc1; X79 = CN1CCC(N[*:1])(C(=O)[*:2])CC1; X10 = C[N+](C)(C)C[C@H](CC(=O)O)N*; 3Pal = N[C@@H](Cc1cccnc1)C(=O)O; Myristoyl = CCCCCCCCCCCCCC(=O)*; Lys(Me) = CNCCCC[C@H](N)C(=O)O; X53 = C[N+]1(CCOCCOCC*)CCOCC1; Pen = CC(C)(S)[C@H](N)C(=O)O; Thp = NC1(C(=O)O)CCOCC1; X3 = C[N+](C)(C)CCCCC*; AEEA = NCCOCCOCC(=O)O; Tfa = O=C(C(F)(F)F)*; Sar = CNCC(=O)O

A short description of this series: Exposed Polar Surface Area (EPSA). The class given is physicochemical. The conditions noted are these: SFC on Chirex 3014 column; sample 1 mM DMSO stock; read-out: EPSA. In a few lines: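 SFC retention on a Chirex 3014 (S)-valine/(R)-1-(α-naphthyl)ethylamine column, 35 °C, CO2 with MeOH (20 mM ammonium formate) gradient 5–60% at 20%/min, 14 MPa outlet. Retention times converted to EPSA (Å^2) via linear calibration with 8 standards; samples from 1 mM DMSO stock, run in duplicate.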
As for `CCCCCCCCCCCCCC(=O)N[C@@H](CCC(=O)NCCOCCOCC(=O)NCCOCCOCC(=O)NCCCC[C@H](NC(=O)C1(NC(=O)[C@H](Cc2ccc3ccccc3c2)NC(=O)[C@H](Cc2ccc(OCCCCC[N+](C)(C)C)cc2)NC(=O)[C@H]2NC(=O)[C@H](CCCCN(C)C(C)=O)NC(=O)[C@H](Cc3c[nH]c4c(C)cccc34)NC(=O)[C@H]([C@@H](C)O)NC(=O)[C@H](CC(=O)N(C)C)NC(=O)[C@@H](NC(=O)[C@@H](CCCCC[N+](C)(C)C)NC(=O)COCCOCCNC(=O)COCCOCCNC(=O)CC[C@H](NC(=O)CCCCCCCCCCCCC)C(=O)O)C(C)(C)SSC2(C)C)CCOCC1)C(=O)N[C@@H](CC(N)=O)C(=O)N[C@@H](Cc1cccnc1)C(=O)N(C)CC(=O)N(C)C)C(=O)O` [compound 376, C14gEPEG2PEG2CO-hk(Me)3-Pen(3)-N(N(Me)2)-T-7MeW-K(NMeAc)-Pen(3)-TMAPF-2Nal-THP-K(PEG2PEG2gEC14)-N-3Pya-Sar-CON(Me)2] ({Myristoyl-γGlu-AEEA-AEEA}-[d(hLys(Me3))][Pen]D(NMe2)T[Trp(7-Me)][Lys(Me)](Ac)[Pen]Y(X3)[2Nal][Thp]K([AEEA-AEEA-γGlu-Myristoyl])N[3Pal][Sar]-NMe2; disulfide 2-7), the EPSA was 176 A^2.
In the case of `CC(=O)NCCCC[C@@H]1NC(=O)[C@H](Cc2c[nH]c3c(C)cccc23)NC(=O)[C@H]([C@@H](C)O)NC(=O)[C@H](CC(N)=O)NC(=O)[C@@H](NC(=O)[C@@H](CCC(=O)N[C@@H](CC(=O)O)C[N+](C)(C)C)NC(C)=O)C(C)(C)SSC(C)(C)[C@@H](C(=O)N[C@@H](Cc2ccc(OCCN)cc2)C(=O)N[C@@H](Cc2ccc3ccccc3c2)C(=O)NC2(C(=O)N[C@@H](CCCCNC(C)=O)C(=O)N[C@@H](CC(N)=O)C(=O)N[C@@H](Cc3cccnc3)C(=O)N(C)CC(N)=O)CCOCC2)NC1=O` [compound 126] (Ac-[dE](X10)[Pen]NT[Trp(7-Me)]K(Ac)[Pen][AEF][2Nal][Thp]K(Ac)N[3Pal][Sar]-NH2; disulfide 2-7) it was 184 A^2; in that of `CC(=O)NCCCC[C@H](NC(=O)C1(NC(=O)[C@H](Cc2ccc3ccccc3c2)NC(=O)[C@H](Cc2ccc(OCCN)cc2)NC(=O)[C@H]2NC(=O)[C@H](CCC(=O)N(C)C)NC(=O)[C@H](Cc3c[nH]c4c(C)cccc34)NC(=O)[C@H]([C@@H](C)O)NC(=O)[C@H](CC(N)=O)NC(=O)[C@@H](NC(=O)C(F)(F)F)C(C)(C)SSC2(C)C)CCOCC1)C(=O)N[C@@H](CC(N)=O)C(=O)N[C@@H](Cc1cccnc1)C(=O)N(C)CC(N)=O` [compound 61] (Tfa-[Pen]NT[Trp(7-Me)]E(NMe2)[Pen][AEF][2Nal][Thp]K(Ac)N[3Pal][Sar]-NH2; disulfide 1-6 (inferred)), 159 A^2.
On to `CC(=O)N(C)CCCC[C@@H]1NC(=O)[C@H](Cc2c[nH]c3c(C)cccc23)NC(=O)[C@H]([C@@H](C)O)NC(=O)[C@H](CC(=O)N(C)C)NC(=O)[C@@H](NC(=O)CCOCCOCC[N+](C)(C)C)C(C)(C)SSC(C)(C)[C@@H](C(=O)N[C@@H](Cc2ccc(OCCOCCOCC[N+](C)(C)C)cc2)C(=O)N[C@@H](Cc2ccc3ccccc3c2)C(=O)NC2(C(=O)N[C@@H](CCCCN(C)C(C)=O)C(=O)N[C@@H](CC(N)=O)C(=O)N[C@@H](Cc3cccnc3)C(=O)N(C)CC(N)=O)CCOCC2)NC1=O` [compound 363, cPEG3aCO-Pen(3)-N(N(Me)2)-T-7MeW-K(NMeAc)-Pen(3)-APEG3F-2Nal-THP-K(NMeAc)-N-3Pya-Sar-CONH2] ({Me3N+(CH2)2O(CH2)2O(CH2)2CO}-[Pen]D(NMe2)T[Trp(7-Me)][Lys(Me)](Ac)[Pen]Y(CH2CH2OCH2CH2OCH2CH2NMe3+)[2Nal][Thp][Lys(Me)](Ac)N[3Pal][Sar]-NH2; disulfide 1-6), for which the EPSA amounted to 155 A^2.
In the case of `CC(=O)NCCCC[C@H](NC(=O)[C@H](CCC(=O)O)NC(=O)C1(NC(=O)[C@H](Cc2ccc3ccccc3c2)NC(=O)[C@H](Cc2ccc(-n3cc(C[N+]4(C)CCOCC4)nn3)cc2)NC(=O)[C@H]2NC(=O)[C@H](CCCCNC(C)=O)NC(=O)[C@H](Cc3c[nH]c4c(C)cccc34)NC(=O)[C@H]([C@@H](C)O)NC(=O)[C@H](CC(N)=O)NC(=O)[C@@H](NC(C)=O)C(C)(C)SSC2(C)C)CCOCC1)C(=O)N[C@@H](Cc1cccnc1)C(=O)N(C)CC(N)=O` [compound 460] (Ac-[Pen]NT[Trp(7-Me)]K(Ac)[Pen][X13][2Nal][Thp]EK(Ac)[3Pal][Sar]-NH2; disulfide 1-6) it was 167 A^2; in that of `CC(=O)N(C)CCCC[C@@H]1NC(=O)[C@H](Cc2c[nH]c3c(C)cccc23)NC(=O)[C@H]([C@@H](C)O)NC(=O)[C@H](CC(=O)N(C)C)NC(=O)[C@@H](NC(=O)CCOCCOCC[N+](C)(C)C)C(C)(C)SSC(C)(C)[C@@H](C(=O)N[C@@H](Cc2ccc(OCCOCCOCC[N+]3(C)CCOCC3)cc2)C(=O)N[C@@H](Cc2ccc3ccccc3c2)C(=O)NC2(C(=O)N[C@@H](CCCCN(C)C(C)=O)C(=O)N[C@@H](CC(N)=O)C(=O)N[C@@H](Cc3cccnc3)C(=O)N(C)CC(=O)N(C)C)CCOCC2)NC1=O` [compound 223, cPEG3aCO-Pen(3)-N(N(Me)2)-T-7MeW-K(NMeAc)-Pen(3)-MMPEG3F-2Nal-THP-K(NMeAc)-N-3Pya-Sar-CON(Me)2] ({Me3N+(CH2)2O(CH2)2O(CH2)2CO}-[Pen]D(NMe2)T[Trp(7-Me)][Lys(Me)](Ac)[Pen]Y(X53)[2Nal][Thp][Lys(Me)](Ac)N[3Pal][Sar]-NMe2; disulfide 1-6), 141 A^2; in that of `CC(=O)N(C)CCCC[C@@H]1NC(=O)[C@H](Cc2c[nH]c3c(C)cccc23)NC(=O)[C@H]([C@@H](C)O)NC(=O)[C@H](CC(=O)N(C)C)NC(=O)[C@@H](NC(=O)CCOCCOCC[N+](C)(C)C)C(C)(C)SSC(C)(C)[C@@H](C(=O)N[C@@H](Cc2ccc(-n3cc(CCC[N+](C)(C)C)nn3)cc2)C(=O)N[C@@H](Cc2ccc3ccccc3c2)C(=O)NC2(C(=O)N[C@@H](CCCCN(C)C(C)=O)C(=O)N[C@@H](CC(N)=O)C(=O)N[C@@H](Cc3cccnc3)C(=O)N(C)CC(=O)N(C)C)CCOCC2)NC1=O` [compound 334, cPEG3aCO-Pen(3)-N(N(Me)2)-T-7MeW-K(NMeAc)-Pen(3)-F(4TzlTMA3)-2Nal-THP-K(NMeAc)-N-3Pya-Sar-CON(Me)2] ({Me3N+(CH2)2O(CH2)2O(CH2)2CO}-[Pen]D(NMe2)T[Trp(7-Me)][Lys(Me)](Ac)[Pen][X51][2Nal][Thp][Lys(Me)](Ac)N[3Pal][Sar]-NMe2; disulfide 1-6 (inferred)), 155 A^2.
On to `CC(=O)NCCCC[C@@H]1NC(=O)[C@H](Cc2c[nH]c3c(C)cccc23)NC(=O)[C@H]([C@@H](C)O)NC(=O)[C@H](CC(N)=O)NC(=O)[C@@H](NC(C)=O)C(C)(C)SSC(C)(C)[C@@H](C(=O)N[C@@H](Cc2ccc(OCC3CCC([N+](C)(C)C)CC3)cc2)C(=O)N[C@@H](Cc2ccc3ccccc3c2)C(=O)NC2(C(=O)N[C@@H](CCCCNC(C)=O)C(=O)N[C@@H](CC(N)=O)C(=O)N[C@@H](Cc3cccnc3)C(=O)N(C)CC(N)=O)CCOCC2)NC1=O` (single isomer, unassigned) [compound 530, MeCO-Pen(3)-N-T-7MeW-K(Ac)-Pen(3)-ACHMF(S*, S*)-2Nal-THP-K(Ac)-N-3Pya-Sar-CONH2], for which the EPSA amounted to 166 A^2.
On to `CCCCCCCCCCCCCC(=O)N[C@@H](CCC(=O)NCCOCCOCC(=O)NCCOCCOCC(=O)NCCCC[C@@H]1NC(=O)[C@H](Cc2c[nH]c3c(C)cccc23)NC(=O)[C@H]([C@@H](C)O)NC(=O)[C@H](CCCCNC(=O)COCCOCCNC(=O)COCCOCCNC(=O)CC[C@H](NC(=O)CCCCCCCCCCCCC)C(=O)O)NC(=O)[C@@H](NC(=O)CCOCCOCC[N+](C)(C)C)C(C)(C)SSC(C)(C)[C@@H](C(=O)N[C@@H](Cc2ccc(OCCCCC[N+](C)(C)C)cc2)C(=O)N[C@@H](Cc2ccc3ccccc3c2)C(=O)NC2(C(=O)N[C@@H](CCCCN(C)C(C)=O)C(=O)N[C@@H](CC(N)=O)C(=O)N[C@@H](Cc3cccnc3)C(=O)N(C)CC(=O)N(C)C)CCOCC2)NC1=O)C(=O)O` [compound 396, cPEG3aCO-Pen(3)-K(PEG2PEG2gEC14)-T-7MeW-K(PEG2PEG2gEC14)-Pen(3)-TMAPF-2Nal-THP-K(NMeAc)-N-3Pya-Sar-CON(Me)2] ({Me3N+(CH2)2O(CH2)2O(CH2)2CO}-[Pen]K([AEEA-AEEA-γGlu-Myristoyl])T[Trp(7-Me)]K([AEEA-AEEA-γGlu-Myristoyl])[Pen]Y(X3)[2Nal][Thp][Lys(Me)](Ac)N[3Pal][Sar]-NMe2; disulfide 1-6), for which the EPSA turned out to be 172 A^2.
`CC(=O)NCCCC[C@@H]1NC(=O)[C@H](Cc2c[nH]c3c(C)cccc23)NC(=O)[C@H]([C@@H](C)O)NC(=O)[C@H](CC(N)=O)NC(=O)[C@@H](NC(=O)C(F)(F)F)C(C)(C)SSC(C)(C)[C@@H](C(=O)N[C@@H](Cc2ccc(OCCN)cc2)C(=O)N[C@@H](Cc2ccc3ccccc3c2)C(=O)NC2(C(=O)N[C@@H](CCCCNC(C)=O)C(=O)N[C@@H](CC(N)=O)C(=O)N[C@@H](Cc3cccnc3)C(=O)N(C)CC(N)=O)CCN(C)CC2)NC1=O` [compound 55] (Tfa-[Pen]NT[Trp(7-Me)]K(Ac)[Pen][AEF][2Nal][X79]K(Ac)N[3Pal][Sar]-NH2; disulfide 1-6 (inferred)): the EPSA was determined as 159 A^2.
As for `CC(=O)NCCCC[C@@H]1NC(=O)[C@H](Cc2c[nH]c3c(C)cccc23)NC(=O)[C@H]([C@@H](C)O)NC(=O)[C@H](CC(N)=O)NC(=O)[C@@H](NC(=O)C(F)(F)F)C(C)(C)SSC(C)(C)[C@@H](C(=O)N[C@@H](Cc2ccc(OCCN)cc2)C(=O)N[C@@H](Cc2ccc3ccccc3c2)C(=O)NC2(C(=O)N[C@@H](CCc3nnn(C)n3)C(=O)N[C@@H](CC(N)=O)C(=O)N[C@@H](Cc3cccnc3)C(=O)N(C)CC(N)=O)CCOCC2)NC1=O` [compound 76] (Tfa-[Pen]NT[Trp(7-Me)]K(Ac)[Pen][AEF][2Nal][Thp][X23]N[3Pal][Sar]-NH2; disulfide 1-6), the EPSA amounted to 161 A^2.
